# From patent US9174946B2, “Selective FAK inhibitors” (priority 2011, dated 2015)
# Target: T1, Y397-FAK phosphorylation (Homo sapiens, UniProt Q05397)
# T1 construct: endogenous in cells; host or cells: MDA-231-LNA cells
# Format: cell-based
# Conditions: not given
# T1 sequence (Q05397 whole entry): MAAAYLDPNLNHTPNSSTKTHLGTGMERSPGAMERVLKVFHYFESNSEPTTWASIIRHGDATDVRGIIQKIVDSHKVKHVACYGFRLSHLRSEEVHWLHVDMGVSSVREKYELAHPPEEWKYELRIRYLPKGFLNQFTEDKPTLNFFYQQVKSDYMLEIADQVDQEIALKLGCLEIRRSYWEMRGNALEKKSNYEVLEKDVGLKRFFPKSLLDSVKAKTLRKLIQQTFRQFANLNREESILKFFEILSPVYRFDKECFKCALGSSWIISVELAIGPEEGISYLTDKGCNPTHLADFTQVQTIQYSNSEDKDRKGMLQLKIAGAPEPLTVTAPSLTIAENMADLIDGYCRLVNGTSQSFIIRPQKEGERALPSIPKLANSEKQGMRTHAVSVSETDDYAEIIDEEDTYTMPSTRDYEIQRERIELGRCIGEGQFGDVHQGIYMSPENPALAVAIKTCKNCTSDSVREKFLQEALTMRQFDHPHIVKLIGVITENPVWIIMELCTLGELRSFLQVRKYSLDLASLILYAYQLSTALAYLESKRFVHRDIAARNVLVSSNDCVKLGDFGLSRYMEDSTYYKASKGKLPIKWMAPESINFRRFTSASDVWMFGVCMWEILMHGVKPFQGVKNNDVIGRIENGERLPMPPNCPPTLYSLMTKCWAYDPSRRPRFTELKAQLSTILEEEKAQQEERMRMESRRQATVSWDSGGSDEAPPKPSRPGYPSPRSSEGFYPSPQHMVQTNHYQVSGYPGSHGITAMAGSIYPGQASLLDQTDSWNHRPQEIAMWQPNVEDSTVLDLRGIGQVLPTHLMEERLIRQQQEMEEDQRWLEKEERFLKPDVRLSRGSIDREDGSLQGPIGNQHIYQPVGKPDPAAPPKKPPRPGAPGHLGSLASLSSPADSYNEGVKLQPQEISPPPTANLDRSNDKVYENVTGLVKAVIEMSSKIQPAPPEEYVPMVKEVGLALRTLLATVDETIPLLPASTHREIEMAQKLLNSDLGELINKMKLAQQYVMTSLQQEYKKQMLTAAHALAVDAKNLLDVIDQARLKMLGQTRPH
row,Structure (SMILES),% response of control at 2 μM
1,"CN1CCC(c2ccc(Nc3ncc(C(F)(F)F)c(CCc4ccccc4CC(N)=O)n3)c(OC(F)(F)F)c2)CC1 [Compound 11, 2-(2-(2-(2-((4-(1-Methylpiperidin-4-yl)-2-(trifluoromethoxy)phenyl)amino)-5-(trifluoromethyl)pyrimidin-4-yl)ethyl)phenyl)acetamide]",117%
2,"CN1CCC(c2ccc(Nc3ncc(C(F)(F)F)c(CCc4ccccc4CC(N)=O)n3)c(F)c2)CC1 [Compound 13, 2-(2-(2-(2-((2-Fluoro-4-(1-methylpiperidin-4-yl)phenyl)amino)-5-(trifluoromethyl)pyrimidin-4-yl)ethyl)phenyl)acetamide]",90%
3,"COc1cc(C2CCNCC2)ccc1Nc1ncc(C(F)(F)F)c(CCc2ccccc2CC(N)=O)n1 [Compound 2, 2-(2-(2-(2-((2-Methoxy-4-(piperidin-4-yl)phenyl)amino)-5-(trifluoromethyl)pyrimidin-4-yl)ethyl)phenyl)acetamide]",91%
4,"COc1cc(C2CCN(C)CC2)ccc1Nc1ncc(C(F)(F)F)c(CCc2ccccc2CC(N)=O)n1 [Compound 3, 2-(2-(2-(2-((2-Methoxy-4-(1-methylpiperidin-4-yl)phenyl)amino)-5-(trifluoromethyl)pyrimidin-4-yl)ethyl)phenyl)acetamide]",102%
5,"COc1cc(C2CCN(C)CC2)ccc1Nc1ncc(C(F)(F)F)c(CCc2cccc(C(N)=O)c2)n1 [Compound 6, 3-(2-(2-((2-Methoxy-4-(1-methylpiperidin-4-yl)phenyl)amino)-5-(trifluoromethyl)pyrimidin-4-yl)ethyl)benzamide]",80%
6,"CCN1CCC(c2ccc(Nc3ncc(C(F)(F)F)c(CCc4ccccc4CC(N)=O)n3)c(OC)c2)CC1 [Compound 4, 2-(2-(2-(2-((4-(1-Ethylpiperidin-4-yl)-2-methoxyphenyl)amino)-5-(trifluoromethyl)pyrimidin-4-yl)ethyl)phenyl)acetamide]",108%
7,"NC(=O)Cc1ccccc1CCc1nc(Nc2ccc(C3CCNCC3)cc2OC(F)(F)F)ncc1C(F)(F)F [Compound 10, 2-(2-(2-(2-((4-(Piperidin-4-yl)-2-(trifluoromethoxy)phenyl)amino)-5-(trifluoromethyl)pyrimidin-4yl)ethyl)phenyl)acetamide]",116%

# Same assay, conditions: MDA-231-LNA cells; relative to control compound at 2 μM
row,Structure (SMILES),% response of control at 2 μM
1,"COc1cc(N2CCNCC2)ccc1Nc1ncc(C(F)(F)F)c(CCc2ccccc2CC(N)=O)n1 [Compound 1, 2-(2-(2-(2-((2-Methoxy-4-(piperazin-1-yl)phenyl)amino)-5-(trifluoromethyl)pyrimidin-4-yl)ethyl)phenyl)acetamide]",122%

# Tested on: HeyA8, SKOV3ip1, and HeyA8-MDR models
# Conditions: concomitant administration of TAE226 and docetaxel, all three models; cited from earlier work
row,Structure (SMILES),reduction of tumour burden
1,CNC(=O)c1ccccc1Nc1nc(Nc2ccc(N3CCOCC3)cc2OC)ncc1Cl [TAE226],85-97%
